Results published in patent publication US11976066B1 (priority 2023, dated 2024).
In brackets after ≈: the same amount, converted by molar mass. Where two headings read alike, the source gives them in different places.

Tested on: Mycobacterium tuberculosis H37Rv
Experiment: Resazurin Microplate Assay (REMA), anti-tubercular activity, susceptible strain
Format: cell-based
Conditions: 192 h
[1] = H37Rv strain, 8 days incubation at 37° C, Middlebrook 7H9 broth, read-out: MIC Susceptible (H37Rv)

Q: With CCOC(=O)c1cc(C(=O)c2ccc(F)cc2)n2ccc(N)cc12 [Compound 3a, Ethyl 7-amino-3-(4-fluorobenzoyl)indolizine-1-carboxylate] as the molecule, how does the MIC (read-out: MIC Susceptible (H37Rv), H37Rv strain, 8 days incubation at 37° C, Middlebrook 7H9 broth) read?
A: ~16 µg/mL (≈ 49 µM)

Q: Which MIC [1] does the source give for CCOC(=O)c1cc(C(=O)c2ccc(Br)cc2)n2ccc(N)cc12 [Compound 3e, Ethyl 7-amino-3-(4-bromobenzoyl)indolizine-1-carboxylate] here?
A: ~32 µg/mL (≈ 82.6 µM)

Q: CCOC(=O)c1cc(C(=O)c2ccccc2[N+](=O)[O-])n2ccc(N)cc12 [Compound 3b, Ethyl 7-amino-3-(2-nitrobenzoyl)indolizine-1-carboxylate] was tested. Which MIC [1] did it give?
A: ~8 µg/mL (≈ 22.6 µM)
